Publication PMC10254233, “Synthesis and In Vitro Biological Evaluation of p-Carborane-Based Di-tert-butylphenol Analogs” (Molecules, 2023)

Tests used:
[1] = biological target: T1, 5-LO (Homo sapiens, UniProt P09917); assay: 5-LO product formation in intact PMNL; settings: read-out: IC50 inhibition of 5-LO product formation in intact PMNL; intact PMNL, A23187 + arachidonic acid, mean of at least three experiments
T1 sequence (P09917 1-674): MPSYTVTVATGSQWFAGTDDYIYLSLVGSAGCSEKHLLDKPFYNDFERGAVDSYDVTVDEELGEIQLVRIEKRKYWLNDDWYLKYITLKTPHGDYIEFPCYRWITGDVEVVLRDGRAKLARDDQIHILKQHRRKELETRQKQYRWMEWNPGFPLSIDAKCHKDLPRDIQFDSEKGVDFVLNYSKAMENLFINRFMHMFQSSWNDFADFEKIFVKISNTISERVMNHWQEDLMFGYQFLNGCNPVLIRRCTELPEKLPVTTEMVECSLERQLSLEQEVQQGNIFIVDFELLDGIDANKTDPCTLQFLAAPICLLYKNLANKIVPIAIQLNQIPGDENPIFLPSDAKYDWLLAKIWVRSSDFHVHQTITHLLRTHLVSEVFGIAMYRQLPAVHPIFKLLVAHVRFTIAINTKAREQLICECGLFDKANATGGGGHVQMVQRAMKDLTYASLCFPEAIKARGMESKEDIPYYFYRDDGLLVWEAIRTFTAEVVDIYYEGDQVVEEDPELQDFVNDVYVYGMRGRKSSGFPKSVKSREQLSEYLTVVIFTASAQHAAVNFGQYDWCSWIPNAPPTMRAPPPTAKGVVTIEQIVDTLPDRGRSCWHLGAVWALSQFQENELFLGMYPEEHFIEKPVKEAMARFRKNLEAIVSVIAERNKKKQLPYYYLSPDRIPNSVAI
Protocol: After 10 min at 37 °C, the reaction was stopped by addition of ice-cold methanol (1 mL). HCl (30 μL, 1 M), prostaglandin B1 (200 ng) and PBS (500 μL) were added and the formed metabolites were extracted and analyzed by HPLC as described previously [96].

[2] = tested on: A375 melanoma; assay: Cell viability, MTT assay, A375; format: cell-based, human; settings: 72 h, mean ± SD
Protocol: Five human cell lines (A375 melanoma, A549 lung adenocarcinoma, HCT116 and HT29 colorectal carcinoma, MDA-MB-231 triple-negative breast adenocarcinoma) were used to study the antitumor effects of the di-tert-butylphenols and their respective carborane analogs. All selected cell lines were derived from inflammation-associated tumors.
After the incubation period, the supernatant was discarded from the wells, and the cells were washed two times with 200 µL of PBS. Next, MTT solution at a final concentration of 0.5 mg/mL was added and incubated at 37 °C until purple formazan crystals were formed (30 min to one hour). After incubation, the dye was discarded. In order to dissolve the formed formazan crystals DMSO was added, and the absorbance was measured at λmax = 540 nm, with the reference/background wavelength of 670 nm. All results are expressed as a percentage of the control value which was arbitrary set to 100%. After 72 h treatment, cells were washed with 200 µL of PBS and fixed with 4% paraformaldehyde (PFA) for 15 min at room temperature (RT). Next, cells were stained with 1% CV solution. After 20 min, cells were washed in tap water and dried on air. Dye was dissolved in 33% acetic acid and the absorbance was measured at λmax = 540 nm, with the reference/background wavelength of 670 nm. Results were expressed as a percentage of the control value which was arbitrary set to 100%.
1. General methods, materials, and procedures
1.1.1. Reagents and cells
Reagents and cells were obtained from following manufacturers: Capricorn Scientific GmbH (Hessen, Germany) – Culture medium RPMI-1640, Dulbecco's Modified Eagle Medium (DMEM), and fetal bovine serum (FBS). Serva (Heidelberg, Germany) – Paraformaldehyde (PFA). Sigma (St. Louis, MO, USA) – Ethylenediaminetetraacetic acid (EDTA), Dimethyl sulfoxide (DMSO), chloroquine, CV, Triton X-100, RNase, PI, PBS, 3-MA, CFSE, and fluorescent mounting medium. AppliChem (MO, USA) –MTT. Thermo Fisher Scientific (Waltham, MA, USA) – DHR. R&D Systems (Minneapolis, MN, USA) – ApoStat. BD (Pharmingen, San Diego, SAD) – Annexin V-FITC (AnnV). Biological Industries (Cromwell, CT, USA) – Penicillin Streptomycin solution. American Type Culture Collection (ATCC, Manassas, Virginia, USA) – Human lung carcinoma (A549), human breast adenocarcinoma (MDA-MB-231), human colorectal ade-nocarcinoma (HT-29), human colorectal carcinoma (HCT116) and human melanoma (A375).
Cell lines (A375, HCT116, HT-29 and MDA-MB-231) were cultivated in HEPES-buffered RPMI-1640 medium while A549 cell line was cultivated in Dulbecco's Modified Eagle Medium (DMEM) which were previously supplemented with 10% heat-inactivated FBS, penicillin (100 units/mL), and streptomycin (100 μg/mL). All cells were kept at 37 °C in a humidified atmosphere with 5% CO2. For viability determi-nation cells were seeded at following densities in 96-well plates: 4 x 10^3 cells/well (A375, HT-29 and MDA-MB-231), 5 x 10^3 cells/well (HCT116), and 3 x 10^3 cells/well (A549). […]
Afterwards, cells were washed with phosphate-buffered saline (PBS) and stained with AnnV (15 μg/mL) and PI (15 μg/mL). […]
PBS and analyzed using flow cytometry. HCT116 cells were stained with 1 µg/mL of AO solution for 15 min at 37 °C to detect the presence of autophagic cell death. Afterwards cells were washed with PBS, resuspended and analyzed by flow cytometry (CyFlow® Space Partec using the PartecFloMax® software

Substance | IC50 [1] [µM] | IC50 [2] [µM]
1-Hydroxy-12-(thiophen-2′-carbonyl)-1,12-dicarba-closo-dodecaborane(12) [Compound R-830-Cb] | 0.65 | 35.9 ± 0.8
(3E)-1-Hydroxy-12-(methylene-[1′-methoxypyrrolidine-2′-one])-1,12-dicarba-closo-dodecaborane(12) [Compound E-5110-Cb] | 0.22 | 69.3 ± 1.7
(3E)-1-Hydroxy-12-(methylene-[2′-ethylisothiazolidine-1′,1′-dioxide])-1,12-dicarba-closo-dodecaborane(12) [Compound S-2474-Cb] | < 0.03 | 106 ± 6.3
(3E)-1-Hydroxy-12-(methylene-[dihydrofurane-2′(3H)-one])-1,12-dicarba-closo-dodecaborane(12) [KME-4-Cb] | 0.07 | 83.3 ± 2.3
